Read-outs that look alike come from different tables or passages of the source.
Experiments:
[1] = system: subjects with chorea associated with HD; conditions: in vivo
Method: (§1) First-HD was a randomized, double-blind, placebo-controlled, parallel-group study designed to evaluate the efficacy, safety, and tolerability of deutetrabenazine in subjects with chorea associated with HD. This trial was conducted in the United States and Canada, in collaboration with the Huntington Study Group.
(§2) Subjects in First-HD were treated with deutetrabenazine or placebo, starting at 6 mg once per day and titrating weekly to doses of up to 24 mg twice per day (48 mg total maximum daily dose). A total of 90 subjects (45 in each group) were enrolled for evaluation over 13 weeks. Subjects were individually titrated to an optimal dose over up to eight weeks, received maintenance therapy at the optimal dose for four weeks, and were taken off study medication in the final week of the trial.
(§3) The primary efficacy endpoint for the study was the change from baseline to maintenance therapy (average of Week 9 and Week 12 values) in the maximal chorea score of the UHDRS. The total maximal score, or TMC, is a clinician-based, quantitative assessment of chorea in seven body regions: face, mouth/tongue, trunk, and the four extremities, with higher scores representing more severe chorea.
(§4) The total motor score (TMS) of the UHDRS was prespecified as an additional efficacy endpoint in First-HD. The TMS assesses all the motor features of HD, including items addressing characteristic motor abnormalities other than chorea, such as dystonia, gait, parkinsonism, and postural instability.
(§5) The clinical relevance of the change in the TMC score was assessed with four prespecified secondary endpoints that assessed changes from baseline to end of treatment (Week 12). These secondary endpoints were tested in a hierarchical manner: • 1. Treatment success based on patient global impression of change (PGIC); • 2. Treatment success based on clinical global impression of change (CGIC); • 3. Physical Functioning Scale of the SF-36; and • 4. Balance, as assessed by the Berg Balance Test (BBT).
(§6) The PGIC and CGIC are single-item questionnaires that ask the subject and investigator, respectively, to assess a subject's overall HD symptoms at specific visits after initiating therapy. Both assessments use a 7-point Likert Scale, with responses ranging from Very Much Worse (−3) to Very Much Improved (+3) to assess overall response to therapy.
(§7) Adverse events (AE) and their potential association with treatment were also monitored. Categories of AEs of particular focus included those known to be associated with tetrabenazine use: • Psychiatric disorders: insomnia, depression/agitated depression, abnormal dreams, agitation, anxiety, suicidal ideation, compulsions, impulsive behavior, and sleep disorders; • Nervous system disorders: somnolence, dizziness, akathisia/restlessness, cognitive disorders, drooling, dyskinesia, migraine, headache, loss of consciousness, and syncope (fainting); • General disorders: irritability, fatigue, gait disturbance, chest pain, and hangover; and • Gastrointestinal disorders: diarrhea, dry mouth, constipation, nausea, upper abdominal pain, dyspepsia, frequent bowel movements, gastrointestinal pain, vomiting, dysphagia, flatulence, and salivary hypersecretion.
(§8) In addition to AE reporting, rating scales were used to monitor for potential subclinical toxicity due to excessive monoamine depletion. […] These scales applied in First-HD included the Hospital Anxiety and Depression Scale (HADS), the Columbia Suicide Severity Rating Scale (C-SSRS), the Swallowing Disturbance Questionnaire (SDQ), the Unified Parkinson's Disease Rating Scale (dysarthria item) (UPDRS [dysarthria]), the Barnes Akathisia Rating Scale (BARS), and the Epworth Sleepiness Scale (ESS). In addition, the UHDRS, which includes cognitive, behavioral, and functional measures, was performed at key visits.

[2] = system: subjects with chorea associated with HD
Method: as §1, §2, §3, §4, §5, §6, §7, §8

[3] = Baseline to Maintenance Therapy, N = 45
[4] = baseline to maintenance therapy
[5] = much or very much improved, Week 12, N = 45

[2H]C([2H])([2H])Oc1cc2c(cc1OC([2H])([2H])[2H])C1CC(=O)C(CC(C)C)CN1CC2 (stereo not drawn) [deutetrabenazine, (RR, SS)-1,3,4,6,7,11b-hexahydro-9,10-di(methoxy-d3)-3-(2-methylpropyl)-2H-benzo[a]quinolizin-2-one]
deaths in the study [1]: no deaths | Absolute Change in Total Maximal Chorea Score, Least Squares Mean (SD) ([2]; Baseline to Maintenance Therapy (mean of Week 9 and Week 12), N = 45): −4.4 (3.0) | Percentage Change in Total Maximal Chorea Score, Least Squares Mean (SD) [2, 3]: −37 (25.7) % | Total Motor Score change, Least Squares Mean (SD) [2, 3]: −7.4 (6.3) | Absolute Change in Total Maximal Chorea Score, Difference in Means (DTBZ − Placebo and 95% CI) ([2]; Baseline to Maintenance Therapy, listed as DTBZ): −2.5 (−3.7, −1.3) | Change in BBT Score, Difference in Means (DTBZ-Placebo) ([2]; Baseline to Week 12): 1.0 | Change in SF-36 Physical Functioning Score, Difference in Means (DTBZ − Placebo) and 95% CI ([2]; Baseline to Week 12): 4.3 | SF-36 physical functioning score compared with placebo-treated subjects ([2]; Baseline to Week 12): greater improvement in physical function | Change in Berg Balance Test Score, Least Squares Mean ([2]; Baseline to Week 12, N = 45): 2.2 | Change in SF-36 Physical Functioning Score, Least Squares Mean (SD) ([2]; Baseline to Week 12, N = 45): 0.74 | Change in SF-36 Physical Functioning Score, Least Squares Mean (SD) ([2]; Baseline to Week 12, N = 45, listed as DTBZ): 0.74 (9.773) | Change in SF-36 Physical Functioning Score, Difference in Means (DTBZ − Placebo) and 95% CI ([2]; Baseline to Week 12, listed as DTBZ): 4.34 (0.41, 8.27) | CGIC Treatment Success, Difference in Percentages (DTBZ − Placebo) and 95% CI ([2]; End of Therapy): 29 (11.4, 46.4) % | PGIC Treatment Success, Difference in Percentages (DTBZ − Placebo) and 95% CI ([2]; End of Therapy): 31 (12.4, 49.8) % | Any Nervous System Disorders TEAE ([2]; N = 45): 8 (17.8) n (%) | Any Psychiatric Disorders TEAE ([2]; N = 45): 8 (17.8) n (%) | Any Serious TEAEs ([2]; N = 45): 1 (2.2) n (%) | Any TEAE that led to Withdrawal from the Study ([2]; N = 45): 1 (2.2) n (%) | Any TEAEs Resulting in Dose Reduction ([2]; N = 45): 3 (6.7) n (%) | Any TEAEs Resulting in Dose Suspension ([2]; N = 45): 1 (2.2) n (%) | Any Treatment-Emergent AEs (TEAEs) ([2]; N = 45): 60.0 n (%) | TEAE Abdominal pain upper ([2]; N = 45): 1 (2.2) n (%) | TEAE Abnormal Dreams ([2]; N = 45): 1 (2.2) n (%) | TEAE Agitation ([2]; N = 45): 1 (2.2) n (%) | TEAE Akathisia/Restlessness ([2]; N = 45): 1 (2.2) n (%) | TEAE Anxiety ([2]; N = 45): 1 (2.2) n (%) | TEAE Chest pain ([2]; N = 45): 1 (2.2) n (%) | TEAE Cognitive Disorder ([2]; N = 45): 1 (2.2) n (%) | TEAE Compulsions ([2]; N = 45): 0 n (%) | TEAE Constipation ([2]; N = 45): 2 (4.4) n (%) | TEAE Depression/Agitated Depression ([2]; N = 45): 2 (4.4) n (%) | TEAE Diarrhea ([2]; N = 45): 4 (8.9) n (%) | TEAE Dizziness ([2]; N = 45): 2 (4.4) n (%) | TEAE Drooling ([2]; N = 45): 1 (2.2) n (%) | TEAE Dry mouth ([2]; N = 45): 4 (8.9) n (%) | TEAE Dyskinesia ([2]; N = 45): 1 (2.2) n (%) | TEAE Dyspepsia ([2]; N = 45): 1 (2.2) n (%) | TEAE Dysphagia ([2]; N = 45): 0 n (%) | TEAE Fatigue ([2]; N = 45): 3 (6.7) n (%) | TEAE Flatulence ([2]; N = 45): 0 n (%) | TEAE Frequent bowel movements ([2]; N = 45): 1 (2.2) n (%) | TEAE Gait disturbance ([2]; N = 45): 1 (2.2) n (%) | TEAE Gastrointestinal pain ([2]; N = 45): 1 (2.2) n (%) | TEAE Hangover ([2]; N = 45): 1 (2.2) n (%) | TEAE Headache ([2]; N = 45): 0 n (%) | TEAE Impulsive Behavior ([2]; N = 45): 0 n (%) | TEAE Insomnia ([2]; N = 45): 3 (6.7) n (%) | TEAE Irritability ([2]; N = 45): 3 (6.7) n (%) | TEAE Loss of Consciousness ([2]; N = 45): 0 n (%) | TEAE Migraine ([2]; N = 45): 1 (2.2) n (%) | TEAE Nausea ([2]; N = 45): 1 (2.2) n (%) | TEAE Salivary hypersecretion ([2]; N = 45): 0 n (%) | TEAE Sleep disorder ([2]; N = 45): 0 n (%) | TEAE Somnolence ([2]; N = 45): 11.1 n (%) | TEAE Suicidal Ideation ([2]; N = 45): 1 (2.2) n (%) | TEAE Syncope ([2]; N = 45): 0 n (%) | TEAE Vomiting ([2]; N = 45): 0 n (%) | Any Treatment-Emergent AEs (TEAEs) ([2]; N = 45, listed as DTBZ): 27 (60.0) n (%) | TEAE Somnolence ([2]; N = 45, listed as DTBZ): 5 (11.1) n (%) | Absolute Change in Total Maximal Chorea Score, Difference in Means (DTBZ − Placebo and 95% CI) [2, 4]: −2.5 | Percentage Change in Total Maximal Chorea Score, Difference in Means (DTBZ − Placebo and 95% CI) [2, 4]: −21 (−30.5, −11.1) % | TMC improved [2, 4]: 37% | Total Motor Score change, Difference in Means (DTBZ − Placebo) and 95% CI [2, 4]: −4.0 (−6.5, −1.5) | improvement in the TMS compared with placebo [2, 4]: 4.0 units | reduction in maximal chorea compared with placebo [2, 4]: 21 percentage points | reduction on the TMC score compared with placebo [2, 4]: 2.5 units | total maximal dystonia score improvement [2, 4]: 0.9 (SE 0.24) points | UHDRS Behavioral Assessment (Part III) mean total behavior score compared with the placebo group ([2]; difference did not achieve statistical significance): improvement in the in the mean total behavior score | AEs of parkinsonism or dysphagia ([2]; in vivo): no AEs of parkinsonism or dysphagia were reported | balance (Berg Balance Test) at end of treatment ([2]; in vivo): did not worsen balance | changes in the parkinsonism subscore (UHDRS motor) vs placebo ([2]; in vivo): no significant difference | hypotension, dizziness, or orthostasis (vital signs) ([2]; in vivo): no evidence that hypotension, dizziness, or orthostasis was associated | parkinsonism subscore of the UHDRS Motor Assessment (Part I) ([2]; in vivo): did not identify evidence of parkinsonism | safety scales (HADS, C-SSRS, UPDRS dysarthria, BARS, ESS) ([2]; in vivo): did not cause depression, anxiety, suicidality, akathisia, somnolence, or difficulty speaking | somnolence, drug-placebo difference ([2]; in vivo): 6.7% | tolerability ([2]; in vivo): generally well tolerated | Clinical Global Impression of Change: Treatment Success at the End of Therapy [2, 5]: 42% | Patient Global Impression of Change: Treatment Success at the End of Therapy [2, 5]: 51% | SF-36 physical functioning mean improvement over placebo ([2]; subjects with more severe chorea at baseline (TMC>12; n=49)): 7.1 units

— patent US12016858B2, “Methods for the treatment of abnormal involuntary movement disorders” (AUSPEX PHARMACEUTICALS, INC., priority 2015, dated 2024)
